Values of other authors as cited in patent US20070116778A1 (priority 2005, published 2007).

Assays:
HIV = details: human, in vivo

SMILES: CCCCCCCCCCCC(=O)OCC(O)CO (stereo not drawn) [Monolaurin]
- effect on the pathogen (Neisseria gonorrhoae): dissolves the outer lipid membrane and interferes with transcriptinase production
- patients with reduced viral load (HIV): 8 patients
- side effects (HIV): without any side effects
